Source: paper PMC9457533, “Study on Metronidazole Acid-Base Behavior and Speciation with Ca^2+ for Potential Applications in Natural Waters” (Molecules, 2022)
“And” between values parts separate entries of the source, which are not always exact repeats. Equal entries are not always repeated.

Tests used:
[1] = Distribution diagram of Ca^2+-MNZ system vs pH; format: physicochemical; details: I = 0.15 mol L^-1, CL = 2 mmol L^-1, CCa = 1 mmol L^-1, 4 ≤ pH ≤ 10
Description: (§1) The protonation constant of MNZ (L), formation constant values of Ca^2+(M)-MNZ (L), and titration parameters (analytical concentration of the reagents, standard potential E^0, junction potential) were determined by using BSTAC and STACO programs. LIANA program has provided the parameters characterizing the dependence of the protonation and formation constant values on the temperature and ionic strength. More details on software are present in ref. [59]. ^1H NMR data were processed by HypNMR software, which allows for calculating protonation and formation constant values and the individual chemical shift of species through the observed signals and assuming fast mutual exchange in the NMR time scale. UV-Vis data are processed by the HypSpec program, which allows refining of the protonation and formation constant as well as the molar absorption coefficient values (ε) of the species. The speciation diagrams and the formation percentage of the species are determined by the Hyss program.

[2] = Speciation simulation of MNZ under sea water conditions; details: pH = 8.1, I = 0.7 mol L^-1, t = 25 °C
Description: In order to assess the relevance of the Ca^2+ complex in sea water conditions, the average concentrations of MNZ (L), Ca^2+, Mg^2+, and other divalent cations such as Cu^2+ and Zn^2+, were considered. With the use of the thermodynamic data here determined, it is possible to carry out simulations in sea water conditions. More in detail, the protonation constants of L and the stability constants of Ca^2+-L complex species were calculated by data in Table 3 at I = 0.7 mol L^−1, i.e., the mean ionic strength of sea water. For Cu^2+-L and Zn^2+-L complexes, data of formation constants determined by us and not yet published were used. […] Formation constant values of Cu^2+- and Zn^2+-L species under sea water conditions, belonging to our unpublished study, are summarized in the Supplementary Materials.
as §1

[3] = Potentiometric titrations: formation constant of Ca^2+-MNZ species (CaLH) in NaCl; format: physicochemical; details: for logK^CaLH: Ca + LH = CaLH
Description: To investigate the interaction between MNZ and Ca^2+, various potentiometric titrations were also performed on solutions containing different metal/ligand ratios. The reactions related to formation constants are indicated below, where the charges are omitted for simplicity and MNZ was indicated as L:Ca + L + rH = MLHr β^MLH^r(3) Ca + LHr = MLHr K^MLH^r(4)
Hydrolysis constant values of Ca^2+ species at various temperatures and ionic strength in NaCl, taken into account in the calculations relating to the M-L system, are reported in Supplementary Material. The most accurate speciation model is chosen by evaluating several factors, which are the statistical parameters standard and mean deviation, the formation percentages of the considered species, and the simplicity of the model. Based on potentiometric results, several computational tests were carried out considering different speciation models.
The potentiometric titrations were employed by Metrohm-Titrando 809 automated potentiometer with a combined glass electrode ORION, type Ross 8102SC and a Metrohm Dosino 800 automatic dispenser. The titrations were performed in cells with a capacity of 25 mL, characterized by a double wall inside which thermostated water circulates. The cells were connected to a thermostat model D1-G Haake. During the measurements, pure N2 was bubbled to avoid CO2 and O2 in solution. The system is interfaced to a PC through the Metrohm TIAMO 2.0 software, which automatically acquires the mL/mV pairs. It can control several parameters, such as e.m.f. stability, titrant delivery, and data acquisition. Estimated accuracy of this apparatus is ±0.15 mV and ±0.002 mL for e.m.f. and for readings of titrant volume. The acid-base titrations were carried out first on 25 mL solutions containing L, HCl, and NaCl as supporting electrolytes at different temperatures and ionic strength conditions. […] The solutions were titrated using standard NaOH solution. A calibration was associated with each measurement by titration with NaOH of a solution containing HCl, NaCl, and H2O, in order to calculate the standard electrode potential (E^0) and the pKw values.
as §1

[4] = Dependence of Ca^2+-MNZ formation constant on ionic strength (Debye-Hückel type equation); format: physicochemical; details: Ca + L + H = CaLH, t = 25 °C, NaCl
Source text: (§2) The choice to carry out the experiments at various ionic strengths made it possible to study the dependence of the values of the protonation and formation constants on the ionic strength, expressed by a Debye-Hückel type equation, reported below: (5) logβ=logβ^T − 0.51 z* I/1 + 1.5 I + CI where β^T is the protonation constant at infinite dilution, z* is the parameter that refers to the charges present in the solution corresponding to ∑z^2reagents − ∑z^2products, and C refers to the empirical parameter that depends on the stoichiometric coefficients and on the charges. Using Equation (5) and equilibrium constants at various ionic strength values, the formation constants extrapolated to I = 0 mol L^−1, together with the empirical parameter C, were obtained.
The protonation constant of MNZ (L), formation constant values of Ca^2+(M)-MNZ (L), and titration parameters (analytical concentration of the reagents, standard potential E^0, junction potential) were determined by using BSTAC and STACO programs. LIANA program has provided the parameters characterizing the dependence of the protonation and formation constant values on the temperature and ionic strength. […] The speciation diagrams and the formation percentage of the species are determined by the Hyss program.

[5] = Dependence of protonation constants on ionic strength (Debye-Hückel type equation); format: physicochemical; details: t = 25 °C, NaCl; for log^Tβ (constant at infinite dilution): extrapolated to I = 0 mol L^-1
Source text: as §2, §1

[6] = CL = 8·10^-10 mol L^-1, CZn = 1.5·10^-9 mol L^-1

maximum metal fraction of CaLH species ([1]; t = 25 °C): 0.4
maximum metal fraction of CaLH species ([1]; t = 37 °C): over 0.1
percentage of LH species ([2]; CL = 8·10^-10 mol L^-1): 22%
percentage of CaLH species ([2]; CL = 8·10^-10 mol L^-1, CCa = 0.01 mol L^-1): 29%
percentage of CuL species ([2]; CL = 8·10^-10 mol L^-1, CCu = 4·10^-5 mol L^-1): 10%
percentage of ZnL species [2, 6]: 4%
percentage of ZnLOH species [2, 6]: 35%
logβ^CaLH ([3]; Ca + L + H = CaLH, t = 15 °C, I = 0.16 mol L^-1 NaCl): 14.06(11) ^4, 5
logβ average value ([3]; Ca + L + H = CaLH, t = 25 °C, I = 0.15 mol L^-1, average of UV, potentiometry): 14.16(7)
logβ^CaLH ([3]; Ca + L + H = CaLH, t = 25 °C, I = 0.5 mol L^-1 NaCl): 15.00(2)
logβ^CaLH ([3]; Ca + L + H = CaLH, t = 25 °C, I = 0.98 mol L^-1 NaCl): 14.60(5) ^6
logβ^CaLH ([3]; Ca + L + H = CaLH, t = 37 °C, I = 0.15 mol L^-1 NaCl): 13.56(8) ^7
logK^CaLH ([3]; t = 15 °C, I = 0.16 mol L^-1 NaCl): 2.06 ^5
logK^CaLH ([3]; t = 25 °C, I = 0.16 mol L^-1 NaCl (text: 0.15)): 2.49 ^5
logK^CaLH ([3]; t = 25 °C, I = 0.5 mol L^-1 NaCl): 2.49
logK^CaLH ([3]; t = 25 °C, I = 0.98 mol L^-1 NaCl): 2.38 ^6
logK^CaLH ([3]; t = 37 °C, I = 0.15 mol L^-1 NaCl): 1.68 and 1.68 ^7
C (empirical parameter for dependence on ionic strength, Equation (5)) [4]: 1.0(2)
log^Tβ (constant at infinite dilution) ([4]; extrapolated to I = 0 mol L^-1): 15.0(2)
C (empirical parameter for dependence on ionic strength, Equation (5)) ([5]; L + 2H = LH2): 1.16(6)
log^Tβ (constant at infinite dilution) ([5]; L + 2H = LH2): 14.4(1)
C (empirical parameter for dependence on ionic strength, Equation (5)) ([5]; L + H = LH): 0.7(2) ^1
log^Tβ (constant at infinite dilution) ([5]; L + H = LH): 12.0(3) ^1
SMILES: Cc1ncc([N+](=O)[O-])n1CCO [MNZ, 2-Methyl-5-nitroimidazole-1-ethanol]
